Literature values as cited in patent US20180353602A1, “COMBINATION OF HDAC INHIBITOR AND ANTI-PD-L1 ANTIBODY FOR TREATMENT OF CANCER” (Syndax Pharmaceuticals, Inc., priority 2015, published 2018).
Where two headings read alike, the source gives them in different places.

How the values were obtained:
[1] = in vivo
[2] = tested on: squamous or non-squamous non small cell lung cancer (NSCLC); details: ≤1, 10, 15, and 25 mg/kg every 3 weeks for up to 1 year

Row | Molecule | half-life [1] | 24-week progression free survival (PFS) rate ([2]; non-squamous cell NSCLC patients) [%] | 24-week progression free survival (PFS) rate ([2]; squamous cell NSCLC patients) [%]
1 | Nc1ccccc1NC(=O)c1ccc(CNC(=O)OCc2cccnc2)cc1 [Entinostat, N-(2-aminophenyl)-4-[N-(pyridine-3-yl)methoxycarbonylamino-methyl]-benzamide] | about 100 hours | – | –
2 | MPDL3280A: human anti-PD-L1 mAb directed against the protein ligand PD-L1, with an engineered Fc domain minimizing ADCC | – | 46 | 44
